Counter-ions that a name gives are not always drawn.
Assays:
[1] = tested on: prepulse-induced inhibition of the acoustic startle response; experiment: Prepulse inhibition of the acoustic startle response; assay type: in vivo, Wistar rats; details: MK-801 0.3 mg/kg, rats
Method: The procedure was performed according to [Czyrak et al., 2003]. On the day before the experiment, the animals were subjected to a single startle session consisting of two trials, each presented 20 times during the session. During the first trial, a 120 dB, 40 ms pulse was presented, and on the second trial this pulse was preceded by a 75 dB, 20 ms prepulse. On the day of the experiment, the animals were habituated to the background white noise (65 dB) for 5 min (which continued throughout the test), after that the startle session was carried out as described above. Startle response amplitude was defined as the difference between the maximum force detected during a recording window and the force measured immediately before the stimulus onset (the threshold was set at 10 g). For each animal, the amplitudes were averaged separately for each type of trial. The PPI was calculated as the difference between the amplitudes of the pulse (P) and the prepulse + pulse (PP+P), divided by the amplitude of the pulse alone [([P - (PP + P)]/P)×100].

mGlu7 receptor [2] = target: T1, mGlu7 receptor (Homo sapiens, UniProt Q14831); experiment: HTRF cAMP assay: antagonism of L-Glu (EC80) inhibition of forskolin-stimulated cAMP accumulation (NAM profile); assay type: cell-based; details: inhibition of forskolin-stimulated cAMP accumulation
T1 construct: expressed in transfected cells
Method: (§1) A homogeneous time-resolved fluorescence (HTRF) cAMP dynamic 2 (Cisbio, Codolet, France) assay was performed as previously described ([Chruścicka et al., 2015]) with recombinant cell lines. Briefly, HEK 293 T-REx cells stably expressing mGlu7 receptor, were collected and suspended in Hanks-HEPES buffer. The cell suspension was added to compounds solution with 5 μM of forskolin (final concentration). After 5 min incubation in 37°C, 5 μl of cAMP-d2 conjugate in lysis buffer was added and mixed with the 10 μl cell suspension by means of an automated pipetting system (Tecan Evo 200, Tecan, Mannedorf, Switzerland). Next, 5 μl anti-cAMP cryptate conjugate was added and the fluorescence at 620 and 665 nm was read after 1 h (Tecan Infinite M1000). The results are shown as the 665 nm/620 nm ratio multiplied by 10^4. The detected signal was inversely proportional to the concentration of cAMP in the sample. […] Each experiment was performed three times (n = 3), and each data point was in triplicate.

mGlu7 = target: mGlu7; set-up: method as in Wright et al., 2000; details: ref Wright et al., 2000; read-out: Ki (affinity of mGlu7 for glutamate); cited from earlier work
mGlu7 receptor [3] = target: T1, mGlu7 receptor; experiment: HTRF cAMP assay: potentiation of forskolin action without agonist (inverse agonist properties); assay type: cell-based; details: T-REx 293 cells, 5 μM forskolin
Method: as §1
Both compounds dose-dependently potentiated forskolin action, elevating cAMP concentration in the T-REx 293 cells (Figure 2B). […] This effect was not observed for an antagonist of mGluR7 – XAP044.

T1 sequence (Q14831 35-915): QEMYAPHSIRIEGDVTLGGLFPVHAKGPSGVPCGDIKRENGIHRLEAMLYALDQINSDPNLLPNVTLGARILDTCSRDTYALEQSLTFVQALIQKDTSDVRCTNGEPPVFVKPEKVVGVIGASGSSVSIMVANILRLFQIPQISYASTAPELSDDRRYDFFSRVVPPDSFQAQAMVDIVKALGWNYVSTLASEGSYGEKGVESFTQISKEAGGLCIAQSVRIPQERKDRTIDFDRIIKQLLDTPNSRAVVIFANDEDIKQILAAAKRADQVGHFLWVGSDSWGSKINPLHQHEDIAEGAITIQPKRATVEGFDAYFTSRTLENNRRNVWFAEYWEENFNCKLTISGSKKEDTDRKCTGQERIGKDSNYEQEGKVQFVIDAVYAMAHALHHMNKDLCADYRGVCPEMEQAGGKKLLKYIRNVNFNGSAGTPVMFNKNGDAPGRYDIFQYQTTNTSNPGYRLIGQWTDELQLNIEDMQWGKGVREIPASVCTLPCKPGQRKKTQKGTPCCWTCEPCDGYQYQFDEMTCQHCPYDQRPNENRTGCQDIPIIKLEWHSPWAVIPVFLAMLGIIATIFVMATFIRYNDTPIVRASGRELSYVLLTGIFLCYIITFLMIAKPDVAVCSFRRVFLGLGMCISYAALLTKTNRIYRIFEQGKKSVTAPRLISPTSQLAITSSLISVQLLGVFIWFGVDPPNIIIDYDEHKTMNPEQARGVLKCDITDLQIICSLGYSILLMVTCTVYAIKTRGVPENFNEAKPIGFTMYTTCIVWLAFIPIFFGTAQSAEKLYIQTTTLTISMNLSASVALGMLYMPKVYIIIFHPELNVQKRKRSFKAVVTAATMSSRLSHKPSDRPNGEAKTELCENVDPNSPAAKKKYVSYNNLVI

C[C@]12N[C@H](Cc3ccccc31)c1ccccc12 [MK-801, (5S,10R)-(+)-5-Methyl-10,11-dihydro-5H-dibenzo[a,d]cyclo-hepten-5,10-imine maleate]
Prepulse-induced inhibition of the acoustic startle response after MK-801 [1]: 16 % of control

N[C@@H](CCC(=O)O)C(=O)O [L-Glu]
L-Glu EC80 concentration (mGlu7 receptor [2]): 6260 µM | Ki (mGlu7): 869 µM

O=c1c(Oc2ccc(I)cc2)coc2cc(O)ccc12 [XAP044]
Potentiation of forskolin action (inverse agonist effect) (mGlu7 receptor [3]): not observed

— paper PMC6158327, “Negative Allosteric Modulators of mGlu7 Receptor as Putative Antipsychotic Drugs” (Frontiers in Molecular Neuroscience, 2018)
